According to publication PMC3397407 (Journal of Medicinal Chemistry, 2012):

How the values were obtained:
[1] = system: NFκB; test: NFκB luciferase assay; assay type: cell-based, Human
[2] = In vivo disposition and metabolites of 3 in rats after gavage; design: species or system rat; details: after gavage of 3
[3] = system: RXRE transcriptional activity (COS-1 cells transfected with pRXRE, phRXRα and pRL); test: RXRE-luciferase reporter gene assay; details: for absolute activity induced (firefly luciferase, not normalized): 24 h incubation conditions; for maximum enhancement of RXRE transcriptional activity: after 4–6 h of incubation
[4] = 10 µM, glutathione 10 mM, NADPH, 60 min
[5] = Metabolic stability with pooled human liver microsomes
[6] = rat, gavage 40 mg/kg daily for 3 days; cited from earlier work
[7] = Chemical stability of synthetic metabolite 4; assay type: physicochemical; details: air and moisture or DMSO solution

**Q.** For CNc1ccc2c3c(n(CCCN)c(=O)c2c1)-c1ccccc1C3O (centres unmarked) [Compound 29], which “concentration range of NFκB inhibition, in words” value [1] is on record?
**A.** The value was “sub-µM concentrations”.

**Q.** Which results are given for CC(=O)Nc1ccc2c3c(n(CCCO)c(=O)c2c1)-c1ccccc1C3=O [Compound 9, N-[6-(3-Hydroxypropyl)-5,11-dioxo-6,11-dihydro-5H-indeno[1,2-c]isoquinolin-3-yl]acetamide]?
**A.** metabolite detected in rat liver [2]: detected in rat liver; metabolite detected in rat mammary tissue [2]: not in serum or mammary tissue

**Q.** With CC(=O)Nc1ccc2c3c(n(CCCN)c(=O)c2c1)-c1ccccc1C3O (centres unmarked) [Compound 6, N-[6-(3-Aminopropyl)-11-hydroxy-5-oxo-6,11-dihydro-5H-indeno[1,2-c]isoquinolin-3-yl]acetamide] as the compound, how does the “metabolite observed in vivo using rats” value [2] read?
**A.** Its value is “all except 6 and 10 were observed in vivo”.

**Q.** Which “metabolite detected in rat liver” value [2] does the source give for Nc1ccc2c3c(n(CCCO)c(=O)c2c1)-c1ccccc1C3=O [Compound 7, 6-(3-Hydroxypropyl)-3-amino-5H-indeno[1,2-c]isoquinoline-5,11(6H)dione] here?
**A.** Its value is “detected in rat liver”.

**Q.** What about the “metabolite detected in rat mammary tissue” value [2] of the same compound?
**A.** The value was “not in serum or mammary tissue”.

**Q.** Which “metabolite detected in rat liver” value [2] does the source give for CC(=O)Nc1ccc2c3c(n(CCCN)c(=O)c2c1)-c1ccccc1C3=O [Compound 5, N-[6-(3-Aminopropyl)-5,11-dioxo-6,11-dihydro-5H-indeno[1,2-c]isoquinolin-3-yl]acetamide] here?
**A.** Its value is “detected”.

**Q.** What about the “metabolite detected in rat mammary tissue” value [2] of the same compound?
**A.** Its value is “not in mammary tissue”.

**Q.** And the “metabolite detected in rat serum” value [2]?
**A.** The value was “detected”.

**Q.** And the “activity as inducer of RXRE transcriptional activity, in words” value [3]?
**A.** The value was “moderately active at high concentrations”.

**Q.** What does the source list for C=C(c1ccc(C(=O)O)cc1)c1cc2c(cc1C)C(C)(C)CCC2(C)C [Compound 2, bexarotene, reference compound]?
**A.** absolute activity induced (firefly luciferase, not normalized) [3]: 22.4 ± 3.1 fold; maximum enhancement of RXRE transcriptional activity [3]: 10 fold; RXRE IR ([3]; at 40 µM): 8.85±3.89

**Q.** For Nc1ccc2c3c(n(CCCO)c(=O)c2c1)-c1ccccc1C3O (centres unmarked) [Compound 8, 3-Amino-11-hydroxy-6-(3-hydroxypropyl)-6,11-dihydro-5H-indeno[1,2-c]isoquinolin-5-one], which “metabolite detected in rat liver” value [2] is on record?
**A.** The value was “detected in rat liver”.

**Q.** What about the “metabolite detected in rat mammary tissue” value [2] of the same compound?
**A.** Its value is “not in serum or mammary tissue”.

**Q.** And the “activity as inhibitor of NFκB, in words” value [1]?
**A.** The value was “inhibited activity as high concentrations”.

**Q.** For NCCCn1c2c(c3ccc(N)cc3c1=O)C(=O)c1ccccc1-2 [Compound 3, 3-amino-6-(3'-aminopropyl)-5H-indeno[1,2-c]isoquinoline-5,11-(6H)dione], which “formation of glutathione conjugates (electrophilic metabolites)” value [4] is on record?
**A.** The value was “no evidence of glutathione conjugates”.

**Q.** And the elimination rate constant ([5]; 1 µM, 1 mg protein/mL, 60 min)?
**A.** Its elimination rate constant is 0.0053.

**Q.** And the CLint scaled at 1 µM ([5]; both, human, microsomes, pH 7.4)?
**A.** Its CLint scaled at 1 µM is 5.33 mL/min/kg.

**Q.** What about the “RXRE Highest IR (maximum induction ratio)” value [3] of the same compound?
**A.** The value was 7.67±0.37.

**Q.** What about the “absolute activity induced (firefly luciferase, not normalized)” value [3] of the same compound?
**A.** Its value is 40.5 ± 5.4 fold.

**Q.** What about the RXRE induction ([3]; 24 h incubation, 5 µM) of the same compound?
**A.** The RXRE induction was ~ 160 fold.

**Q.** And the “induction ratio normalized on Renilla luciferase activity” value ([3]; 24 h incubation, Figure 9)?
**A.** Its value is “exceeded 100 fold”.

**Q.** What about the “maximum enhancement of RXRE transcriptional activity” value [3] of the same compound?
**A.** Its value is 5 fold.

**Q.** What about the concentration in liver [6] of the same compound?
**A.** The concentration in liver was 4.3 µg/g.

**Q.** And the “concentration in mammary gland” value [6]?
**A.** Its value is 0.3 µg/g.

**Q.** And the concentration in serum [6]?
**A.** The concentration in serum was 800 ng/mL.

**Q.** Which “concentration range of NFκB inhibition, in words” value [1] does the source give for CNc1ccc2c3c(n(CCCNC(=O)OC(C)(C)C)c(=O)c2c1)-c1ccccc1C3O (centres unmarked) [Compound 27] here?
**A.** Its value is “sub-µM concentrations”.

**Q.** With CNCCCn1c2c(c3ccc(N)cc3c1=O)C(O)c1ccccc1-2 (centres unmarked) [Compound 34] as the compound, how does the “concentration range of NFκB inhibition, in words” value [1] read?
**A.** The value was “sub-µM concentrations”.

**Q.** For NCCCn1c2c(c3ccc(N)cc3c1=O)C(O)c1ccccc1-2 (centres unmarked) [Compound 4, 3-Amino-6-(3-aminopropyl)-11-hydroxy-6,11-dihydro-5H-indeno[1,2-c]isoquinolin-5-one], which chemical stability [7] is on record?
**A.** Its chemical stability is “rather unstable and slowly oxidized back to 3”.

**Q.** What about the “metabolite detected in rat liver” value [2] of the same compound?
**A.** The value was “detected in rat liver”.

**Q.** And the “metabolite detected in rat mammary tissue” value [2]?
**A.** Its value is “not in serum or mammary tissue”.
